# Results taken from US6365631B1, “Method of treating sleep apnoea” (Knoll Pharmaceutical Company, priority 1999, dated 2002).
# Assays:
# [1] = tested on: patients suffering from clinically relevant obesity (BMI>30) and sleep apnoea; test: open explorative study with 5 volunteer patients with obesity and sleep apnoea
# Method: Study design: An open explorative study with 5 volunteer patients suffering from clinically relevant obesity (BMI>30) and sleep apnoea was performed. […] No other control treatment was applied.
# Methods: Patients willing to lose weight who had obtained prescriptions for Reductil® (Knoll) from their doctor were asked to take part in this voluntary observational study. All patients were willing to change dietary habits during treatment, and to perform at least moderate physical training (twice a week at least half an hour). Patients were interviewed pre and post treatment, and their partners asked for their observations on snoring behaviour. The patients were asked for their own rating of severity of daytime sleepiness, and their partners for objective observations about frequency and heaviness of snoring as well as for their observations about apnoea signs.
# [2] = tested on: patients suffering from clinically relevant obesity, many with serious sleep apnoea problems; test: clinical study, computer supported arousal/apnoea recognition in subset of 36 of 150 obese patients; assay type: in vivo, human; settings: Sibutramine 20 mg daily; week-12 vs week-1 (pre-treatment); subset of 36 patients
# Method: The beneficial effects of the compounds of the present invention at doses of 15 mg and 20 mg daily may also be confirmed in a double-blind, randomised, placebo-controlled clinical trial using questionnaires or by recording Holter ecgs with a Rozin/GeTeMed tape recorder device for 24 to 36 hours pre and post treatment period, using IEC-I type tapes. The ecg data may be computer-processed to study arousals.
# In a clinical study with 150 patients suffering from clinically relevant obesity, many of them with serious sleep apnoea problems, a subset of 36 patients was arbitrarily selected for computer supported arousal/apnoea recognition. Two consecutive nights were recorded at week-1 (pre-treatment) and week-12 of treatment, and the number of arousals per hour of sleep time was evaluated. […] Compared to placebo this is significant at a 5%-level (p=0.0227).
# [3] = 5 patients, 10 or 15 mg daily, 6 to 14 weeks
compound,measurement,setting,value
"CC(C)CC(N(C)C)C1(c2ccc(Cl)cc2)CCC1 (stereo not drawn) [sibutramine, N,N-dimethyl-1-[1-(4-chlorophenyl)cyclobutyl]-3-methylbutylamine]",mean weight loss under treatment,[1]; [3],14 kg
same,"weight loss, span over patients",[1]; [3],−7% to −22%
same,mean weight loss under treatment (percent),"[1]; 5 patients, 10 or 15 mg/kg daily, 6 to 14 weeks",14.6%
same,Mean BMI at end of treatment,"[1]; 5 patients, sibutramine 10 or 15 mg daily, 6 to 14 weeks, 34 before treatment",29
same,"arousal index Al, mean after treatment","[1]; mean 23,5 before treatment","10,0"
same,patients with clearly reduced daytime sleepiness,"[1]; of 5 patients, after treatment",4 out of 5
same,patients reporting improved ease of breathing with closed mouth,"[1]; of 5 patients, under treatment",3 out of 5
same,"decrease of arousal index, span over patients",[1]; pre vs post treatment,−25% to −67%
same,mean decrease of arousal index,[1]; pre vs post treatment,−57%
same,"daytime sleepiness scale after treatment, patient-reported","[1]; scale 0-3, 2,0 before treatment","0,6"
same,"snoring scale mean after treatment, observed by sleep companions","[1]; scale 0-3, mean score 2,2 before treatment",1
same,reduction of number of arousals per hour of sleep time,[2],clinically significant effect
